{
  "source": "ChEMBL document CHEMBL5579825",
  "about": "“Exploration of 1-(indolin-1-yl)-2-(thiazol-2-yl)ethan-1-one derivatives as novel anti-HBV agent with potential TLR7-agonistic effect” (Eur J Med Chem, 2024)",
  "key": {"Hepatitis B virus [1]": {"test_system": "Hepatitis B virus", "assay": "(§1) Antiviral activity against HBV infected in human HepG2.2.15 cells assessed as inhibition of viral DNA replication at 4 uM pre-transfected cells with viral genome followed by compound treatment for 72 hrs by RT-PCR analysis relative to control", "type": "functional"}, "[2]": {"assay": "Selectivity index, ratio of CC50 for human HepG2.2.15 cells to IC50 for HBV infected in human HepG2.2.15 cells assessed as inhibition of viral DNA replication", "type": "toxicity, cell-based"}, "[3]": {"assay": "Selectivity index, ratio of CC50 for human HepG2.A64 cells to IC50 for HBV infected in human HepG2.A64 cells assessed as inhibition of viral DNA replication", "type": "toxicity, cell-based", "details": "read-out: Ratio CC50/IC50"}, "PBMC [4]": {"test_system": "PBMC", "assay": "Induction of IFN-alpha production in human PBMC cells incubated for 24 hrs by ELISA", "type": "functional, cell-based", "details": "dose 0.4-10 µM"}, "[5]": {"assay": "Cytotoxicity against human HepG2.2.15 cells incubated for 72 hrs by CCK8 assay", "type": "toxicity, cell-based, HepG2 2.2.15"}, "HEK-293T": {"test_system": "HEK-293T", "assay": "Effect on NF-kappaB/Renilla luciferase expression in HEK293T cells at 0.4 to 10 uM incubated for 48 hrs by Dual-luciferase reporter gene assay", "type": "functional, cell-based", "details": "Homo sapiens, dose 0.4-10 µM"}, "PBMC [6]": {"test_system": "PBMC", "assay": "Induction of TNF-alpha production in human PBMC cells incubated for 24 hrs by ELISA", "type": "functional, cell-based", "details": "dose 0.4-10 µM"}, "[7]": {"molecular_target": "T1, Toll-like receptor 7 (Homo sapiens) (UniProt Q9NYK1)", "T1 sequence (whole entry)": "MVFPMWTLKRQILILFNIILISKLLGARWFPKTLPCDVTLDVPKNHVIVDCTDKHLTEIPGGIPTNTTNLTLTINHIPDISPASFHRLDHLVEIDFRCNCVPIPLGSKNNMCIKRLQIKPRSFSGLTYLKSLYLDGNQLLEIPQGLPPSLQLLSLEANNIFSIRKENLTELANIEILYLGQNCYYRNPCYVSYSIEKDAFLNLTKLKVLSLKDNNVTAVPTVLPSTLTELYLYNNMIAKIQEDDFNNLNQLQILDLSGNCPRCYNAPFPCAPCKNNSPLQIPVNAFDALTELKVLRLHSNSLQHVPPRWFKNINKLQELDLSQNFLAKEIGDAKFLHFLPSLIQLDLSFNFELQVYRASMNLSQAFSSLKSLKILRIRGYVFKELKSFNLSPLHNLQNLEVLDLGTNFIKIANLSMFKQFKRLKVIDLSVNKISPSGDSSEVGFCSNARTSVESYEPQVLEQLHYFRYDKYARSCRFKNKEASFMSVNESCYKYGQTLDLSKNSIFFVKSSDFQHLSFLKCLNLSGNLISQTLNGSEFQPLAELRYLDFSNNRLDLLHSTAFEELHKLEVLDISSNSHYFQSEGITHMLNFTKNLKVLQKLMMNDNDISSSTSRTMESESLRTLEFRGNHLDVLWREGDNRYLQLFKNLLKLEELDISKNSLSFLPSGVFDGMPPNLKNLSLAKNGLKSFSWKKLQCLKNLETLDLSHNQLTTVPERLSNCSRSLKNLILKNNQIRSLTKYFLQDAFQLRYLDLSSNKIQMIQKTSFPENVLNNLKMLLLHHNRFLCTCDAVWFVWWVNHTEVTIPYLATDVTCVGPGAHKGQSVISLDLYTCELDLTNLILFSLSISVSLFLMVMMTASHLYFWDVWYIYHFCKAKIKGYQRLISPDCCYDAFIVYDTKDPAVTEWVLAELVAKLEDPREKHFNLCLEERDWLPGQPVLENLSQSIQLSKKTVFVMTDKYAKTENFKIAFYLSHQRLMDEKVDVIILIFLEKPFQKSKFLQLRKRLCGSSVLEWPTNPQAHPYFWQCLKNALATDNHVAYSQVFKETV", "assay": "Agonist activity at human TLR7 expressed in HEK293T cells co-transfected with NF-kappaB/Renilla luciferase incubated for 48 hrs by Dual-luciferase reporter gene assay", "type": "cell-based", "details": "filed as agonist, dose 0.4-10 µM"}, "[8]": {"assay": "Tmax in Sprague-Dawley rat at 10 mg/kg, IG measured for 12 hrs by UPLC-MS/MS analysis", "type": "ADME, organism-based", "details": "in vivo, po"}, "Hepatitis B virus [9]": {"test_system": "Hepatitis B virus", "assay": "Antiviral activity against HBV infected in human HepG2.A64 cells assessed as inhibition of viral DNA replication pre-transfected cells with viral genome followed by compound treatment for 3 days by RT-PCR analysis", "type": "functional, organism-based", "details": "HepG2.A64, 72 h"}, "[10]": {"assay": "Half life in Sprague-Dawley rat at 10 mg/kg, IG measured for 12 hrs by UPLC-MS/MS analysis", "type": "ADME, organism-based", "details": "in vivo, po"}, "[11]": {"assay": "Cytotoxicity against human HepG2.A64 cells incubated for 72 hrs by CCK8 assay", "type": "toxicity, cell-based"}, "[12]": {"assay": "Cmax in Sprague-Dawley rat at 10 mg/kg, IG measured for 12 hrs by UPLC-MS/MS analysis", "type": "ADME, organism-based", "details": "in vivo, po"}, "Toll-like receptor 7": {"molecular_target": "T2, Toll-like receptor 7 (Homo sapiens, UniProt Q9NYK1)", "T2 sequence (Q9NYK1 whole entry)": "T1 sequence (whole entry)", "assay": "Binding affinity to recombinant human TLR7 assessed as dissociation constant by SPR analysis"}, "Hepatitis B virus [13]": {"test_system": "Hepatitis B virus", "assay": "as §1, with “6 days with replacement of medium containing compound on every 2 days” for “72 hrs”", "type": "functional", "details": "HepG2.2.15, 144 h, time 6 day"}, "PBMC [14]": {"test_system": "PBMC", "assay": "Induction of IL-2 production in human PBMC cells incubated for 24 hrs by ELISA", "type": "functional, cell-based", "details": "dose 0.4-10 µM"}, "Hepatitis B virus [15]": {"test_system": "Hepatitis B virus", "assay": "Antiviral activity against HBV infected in LAM/ETV-resistant human HepG2.A64 cells assessed as inhibition of viral DNA replication at 4 uM pre-transfected cells with viral genome followed by compound treatment for 72 hrs by RT-PCR analysis relative to control", "type": "functional"}, "[16]": {"assay": "Selectivity index, ratio of CC50 for human HepG2.2.15 cells to IC50 for HBsAg secretion in human HepG2.2.15 cells", "type": "toxicity, cell-based", "details": "HepG2.2.15 cells, read-out: Ratio CC50/IC50"}, "[17]": {"assay": "AUClast in Sprague-Dawley rat at 10 mg/kg, IG measured for 12 hrs by UPLC-MS/MS analysis", "type": "ADME, organism-based", "details": "in vivo, po"}, "[18]": {"assay": "Inhibition of HBsAg secretion in human HepG2.2.15 cells treated for 6 days with replacement of medium containing compound on every 2 days by […]", "type": "functional, cell-based", "details": "HepG2 2.2.15"}, "Hepatitis B virus [19]": {"test_system": "Hepatitis B virus", "assay": "Antiviral activity against HBV infected in human HepG2.2.15 cells assessed as inhibition of viral DNA replication pre-transfected cells with viral genome followed by compound treatment for 6 days with replacement of medium containing compound on every 2 days by RT-PCR analysis", "type": "functional, organism-based"}},
  "note": "Active and inactive are the calls of the source. No cut-off for these calls is given here.",
  "data": [
    {"smiles": "O=C(Cc1csc(COc2ccccc2F)n1)N1CCc2ccccc21", "values": [
      {"measurement": "inhibition at 4 µM", "setting": "Hepatitis B virus [1]", "value": 71.7, "unit": "%"},
      {"measurement": "Ratio CC50/IC50", "setting": "[2]", "value": "> 384.62"},
      {"measurement": "selectivity ratio", "setting": "[2]; HepG2.2.15 cells, read-out: Ratio CC50/IC50", "value": "> 384"},
      {"measurement": "selectivity ratio", "setting": "[3]", "value": "> 55.6"},
      {"measurement": "Activity", "setting": "PBMC [4]", "value": "Dose-Dependent Effect"},
      {"measurement": "CC50 at 72 h", "setting": "[5]", "value": "> 50", "unit": "µM"},
      {"measurement": "Activity", "setting": "HEK-293T", "value": "Active"},
      {"measurement": "Activity", "setting": "PBMC [6]", "value": "Dose-Dependent Effect"},
      {"measurement": "Activity", "setting": "[7]", "value": "Dose-Dependent Effect"},
      {"measurement": "Tmax", "setting": "[8]", "value": 2, "unit": "h"},
      {"measurement": "IC50", "setting": "Hepatitis B virus [9]", "value": 0.36, "unit": "µM"},
      {"measurement": "half-life", "setting": "[10]", "value": 2, "unit": "h"},
      {"measurement": "CC50 at 72 h", "setting": "[11]", "value": "> 20", "unit": "µM"},
      {"measurement": "Cmax", "setting": "[12]", "value": 66, "unit": "ng/mL"},
      {"measurement": "Kd", "setting": "Toll-like receptor 7", "value": 7.06, "unit": "µM"},
      {"measurement": "inhibition at 4 µM", "setting": "Hepatitis B virus [13]", "value": 69.2, "unit": "%"},
      {"measurement": "Activity", "setting": "PBMC [14]", "value": "Dose-Dependent Effect"},
      {"measurement": "inhibition at 4 µM", "setting": "Hepatitis B virus [15]", "value": 74.2, "unit": "%"},
      {"measurement": "selectivity ratio", "setting": "[16]", "value": "> 1.93"},
      {"measurement": "AUC(0-t) at 12 h", "setting": "[17]", "value": 252, "unit": "ng·h/mL"},
      {"measurement": "IC50", "setting": "[18]", "value": 25.9, "unit": "µM"},
      {"measurement": "IC50", "setting": "Hepatitis B virus [19]", "value": 0.13, "unit": "µM"}
    ]}
  ]
}
